Source: patent US20080318943A1, “Compounds and Uses Thereof - 848” (ASTRAZENECA AB, priority 2007, published 2008)

Tests used:
GABAA receptor α1β2γ2 = target: T1, GABAA receptor α1β2γ2 (Homo sapiens, UniProt P14867+P18507); assay: Two-electrode voltage-clamp potentiation of GABA EC10 current in Xenopus oocytes, GABAA1; type: cell-based; conditions: percentage potentiation of GABA EC10 current divided by that of diazepam
T1 construct: expressed in transfected cells; host or cells: Xenopus laevis oocytes injected with cRNA
T1 sequence (P14867 28-456): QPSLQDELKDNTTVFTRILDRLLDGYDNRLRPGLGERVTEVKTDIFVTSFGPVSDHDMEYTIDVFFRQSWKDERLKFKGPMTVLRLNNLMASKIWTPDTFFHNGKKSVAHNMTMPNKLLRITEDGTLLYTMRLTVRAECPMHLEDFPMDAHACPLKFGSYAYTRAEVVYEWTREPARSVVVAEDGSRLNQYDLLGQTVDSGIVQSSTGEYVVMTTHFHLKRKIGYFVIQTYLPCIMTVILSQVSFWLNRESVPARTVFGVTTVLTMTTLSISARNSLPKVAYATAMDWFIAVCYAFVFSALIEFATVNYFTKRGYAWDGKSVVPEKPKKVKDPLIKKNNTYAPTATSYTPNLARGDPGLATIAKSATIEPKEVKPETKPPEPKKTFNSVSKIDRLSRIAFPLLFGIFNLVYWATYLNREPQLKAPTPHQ
T1 sequence (P47870 25-512 partner limits assumed): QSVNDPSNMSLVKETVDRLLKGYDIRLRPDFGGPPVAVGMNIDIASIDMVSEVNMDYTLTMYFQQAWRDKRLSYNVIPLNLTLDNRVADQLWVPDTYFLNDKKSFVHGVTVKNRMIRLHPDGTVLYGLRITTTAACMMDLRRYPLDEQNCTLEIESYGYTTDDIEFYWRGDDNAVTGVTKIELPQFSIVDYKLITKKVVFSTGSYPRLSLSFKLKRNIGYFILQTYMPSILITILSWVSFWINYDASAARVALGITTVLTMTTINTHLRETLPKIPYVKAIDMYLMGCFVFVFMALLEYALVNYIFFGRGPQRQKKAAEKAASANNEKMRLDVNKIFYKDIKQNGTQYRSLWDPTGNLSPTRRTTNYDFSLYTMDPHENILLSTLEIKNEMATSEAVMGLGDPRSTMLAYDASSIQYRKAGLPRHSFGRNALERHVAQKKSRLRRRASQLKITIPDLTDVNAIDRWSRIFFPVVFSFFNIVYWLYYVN
T1 sequence (P18507 40-475): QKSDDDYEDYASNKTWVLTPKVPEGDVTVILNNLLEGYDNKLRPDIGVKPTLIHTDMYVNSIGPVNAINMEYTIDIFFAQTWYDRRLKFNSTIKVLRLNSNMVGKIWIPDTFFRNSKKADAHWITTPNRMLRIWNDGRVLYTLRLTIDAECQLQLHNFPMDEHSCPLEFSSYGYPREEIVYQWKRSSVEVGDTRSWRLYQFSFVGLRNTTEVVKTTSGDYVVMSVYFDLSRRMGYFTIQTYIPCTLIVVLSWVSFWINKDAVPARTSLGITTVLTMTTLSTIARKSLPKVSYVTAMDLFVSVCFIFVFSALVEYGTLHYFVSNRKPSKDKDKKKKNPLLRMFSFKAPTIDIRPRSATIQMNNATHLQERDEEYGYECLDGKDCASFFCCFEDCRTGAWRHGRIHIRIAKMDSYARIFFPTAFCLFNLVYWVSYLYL
Procedure, shortened: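 Human GABAA receptors expressed in Xenopus oocytes by cRNA injection (α:β:γ molar ratio ~1:1:10 for α1β2γ2, 1:1:1 for α2β3γ2), recorded 2-10 days later by two-electrode voltage clamp at −60 mV in ND-96, pH 7.5. Modulator preapplied 30 s before GABA at per-oocyte EC10. Peak-current percent potentiation over GABA alone, normalised to diazepam.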

GABAA receptor α2β3γ2 = target: T2, GABAA receptor α2β3γ2 (Homo sapiens, UniProt P18507+P47869); assay: Two-electrode voltage-clamp potentiation of GABA EC10 current in Xenopus oocytes, GABAA2; type: cell-based; conditions: percentage potentiation of GABA EC10 current divided by that of diazepam
T2 construct: expressed in transfected cells; host or cells: Xenopus laevis oocytes injected with cRNA
T2 sequence (P47869 29-451): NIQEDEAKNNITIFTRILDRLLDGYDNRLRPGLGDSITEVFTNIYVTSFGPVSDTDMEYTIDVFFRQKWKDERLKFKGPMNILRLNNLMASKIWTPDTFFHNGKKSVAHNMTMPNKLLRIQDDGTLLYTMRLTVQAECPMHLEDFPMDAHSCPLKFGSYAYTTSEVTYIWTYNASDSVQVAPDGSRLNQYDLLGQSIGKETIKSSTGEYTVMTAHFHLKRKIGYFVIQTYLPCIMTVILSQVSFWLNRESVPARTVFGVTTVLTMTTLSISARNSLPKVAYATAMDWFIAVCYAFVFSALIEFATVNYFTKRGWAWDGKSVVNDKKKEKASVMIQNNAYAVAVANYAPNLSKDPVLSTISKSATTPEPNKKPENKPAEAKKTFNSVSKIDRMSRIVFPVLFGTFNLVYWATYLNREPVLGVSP
T2 sequence (P28472 26-473 partner): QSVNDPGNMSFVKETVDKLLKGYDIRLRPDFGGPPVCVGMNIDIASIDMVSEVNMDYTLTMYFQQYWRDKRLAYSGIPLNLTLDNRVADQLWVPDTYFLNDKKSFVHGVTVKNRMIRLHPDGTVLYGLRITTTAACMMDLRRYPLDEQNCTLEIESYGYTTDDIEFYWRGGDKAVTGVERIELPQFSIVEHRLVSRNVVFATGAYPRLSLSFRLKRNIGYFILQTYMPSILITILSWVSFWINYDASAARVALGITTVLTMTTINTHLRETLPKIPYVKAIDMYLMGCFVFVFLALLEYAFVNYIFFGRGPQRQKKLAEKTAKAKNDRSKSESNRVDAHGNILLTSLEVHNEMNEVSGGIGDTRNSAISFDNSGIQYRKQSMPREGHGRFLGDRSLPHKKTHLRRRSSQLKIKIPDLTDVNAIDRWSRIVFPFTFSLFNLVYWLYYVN
T2 sequence (P18507 40-475): as the sequence (P18507 40-475) above
Protocol: GABAA receptors were heterologously expressed in Xenopus oocytes by injecting cRNA corresponding to human α1, α2, α3, α5, β2, P3 and γ2 subunits of the GABAA receptor genes. The specific subunit combinations (subtypes) were as follows: α1β2γ2, α2β3γ2, α3β3γ2, and α5β3γ2. The EC10 of GABA is approximated for each cell. Stability of GABA-mediated (EC10) current is established. Modulatory effect of test compound is determined and compared across subtypes. […] Thus, the assay can characterize modulatory effects and determine subtype selectivity of test compounds on major subtypes of GABAA receptors.
Xenopus laevis frogs (Xenopus I, Kalamazoo, Mich.) were anesthetized using 0.15% tricaine. Surgically removed ovarian lobes were teased out in OR2 solution (82 NaCl, 2.5 KCl, 5 HEPES, 1.5 NaH2PO4, 1 MgCl2, 0.1 EDTA, in mM, pH 7.4). The oocytes were defolliculated by incubation in 25 mL OR2 containing 0.2% collagenase 1A (SIGMA) two times for about 60 minutes on a platform shaker and stored in Leibovitz's L-15 medium. Oocytes were injected the following day in 0.5× Leibovitz's L-15 medium containing […] gentamycin, 10 units/ml penicillin, and […] streptomycin.
Capped cRNAs from the linearized vectors containing human α1, β2 and γ2 subunits of the GABAA receptor genes were mixed in ratio of […]. Oocytes were injected with 25-50 nL of mixed RNA with an appx molar ratio for α1, β2, and γ2 as 1:1:10. Oocyte recordings were done 2-10 days after injection. The same methods apply to subtypes derived from α2β3γ2, α3β3γ2, and α5β3γ2, except for 1:1:1 ratio was used for α, β, and γ subunits.
All measurements were done in a medium containing ND-96 (96 NaCl, 2 KCl, 1.8 CaCl2.2H2O, 1 MgCl2.6H2O, 5 HEPES, in mM, pH 7.5). Two-electrode voltage-clamp recording was carried out using OpusXpress amplifier (Axon Instruments, Foster City, Calif.), which allows simultaneous recording from 8 oocytes. Oocytes were impaled with two electrodes of 1-2 MΩ tip resistance when filled with 3M KCl. Recordings were begun when membrane potential became stable at potentials negative to −50-−60 mV. Membrane potential was held at −60 mV. […] The concentration of GABA corresponded to the EC10 value calculated for each oocyte. The modulator pulses started 30 s before the GABA pulse so as to allow preincubation with the modulator. A set of 3 pulses with just GABA without modulator was given prior to the modulator-containing pulses to define the baseline GABA response. Two oocytes per each experiment were dedicated to observe the effect of diazepam on GABA response to ensure the presence of γ2 subunit in the GABAA pentameric complex, which imparts diazepam sensitivity to the complex.
Current amplitude (i) was measured from baseline to peak using Clampfit (Axon Inst., Foster City, Calif.). Potentiation was calculated as percent change from the baseline GABA current flux 100×(imod/icontrol)−1) where imod=current mediated by modulator+GABA and icontrol=current mediated by GABA alone. […] Similarly, a value of −50% potentiation means the presence of modulator caused a 50% decrease in the control current. Various other data shown here were fitted and plotted using GraphPad Prism (GraphPad Software, Inc. San Diego, Calif.). The percentage potentiation was converted to relative potentiation by dividing it with percentage potentiation value obtained from the same assay with diazepam as a control.

[1] = target: T3, GABAA2 receptors (α2, β3, γ2 receptor subunits transfected into Sf9 cells) (Homo sapiens, UniProt P18507+P47869); assay: GABAA2 Binding Method ([3H]-Flunitrazepam displacement); conditions: [3H]-Flunitrazepam ~2 nM, α2β3γ2 Sf9 membranes, 1 hr at 4° C.
T3 construct: host or cells: Sf9 cells (membranes)
T3 sequence (P47869 29-451): as the sequence (P47869 29-451) above
T3 sequence (P28472 26-473 partner): as the sequence (P28472 26-473 partner) above
T3 sequence (P18507 40-475): as the sequence (P18507 40-475) above
Procedure, shortened: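 Displacement of [3H]-flunitrazepam (~2 nM in assay) from recombinant human α2β3γ2 receptors in Sf9 membranes; 1 h incubation at 4 °C, harvest by filtration. Values reported as percent of control, IC50 and Ki.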

[2] = listed as 9-amino-2-cyclobutyl-5-(2-fluoro-6-methoxyphenyl)-2,3-dihydro-1H-pyrrolo[3,4-b]q

COc1cccc(-c2cccc3c(N)c4c(nc23)CN(C)C4=O)c1F [9-Amino-5-(2-fluoro-3-methoxyphenyl)-2-methyl-2,3-dihydropyrrolo[3,4-b]quinolin-1-one]
Relative Potentiation for GABAA1 (GABAA receptor α1β2γ2): 0.09
Relative Potentiation for GABAA2 (GABAA receptor α2β3γ2): 0.11
Ki [1]: 32.5 nM

CCCN1Cc2nc3c(-c4cc(C)ccc4C)cccc3c(N)c2C1=O [9-amino-5-(2,5-dimethylphenyl)-2-propyl-2,3-dihydro-1H-pyrrolo[3,4-b]quinolin-1-one]
Relative Potentiation for GABAA1 (GABAA receptor α1β2γ2): 0.22
Relative Potentiation for GABAA2 (GABAA receptor α2β3γ2): 0.2
Ki [1]: 56.8 nM

Nc1c2c(nc3c(-c4cncnc4)c(F)ccc13)CN(C1CCC1)C2=O [9-Amino-2-cyclobutyl-6-fluoro-5-pyrimidin-5-yl-2,3-dihydropyrrolo[3,4-b]quinolin-1-one]
Relative Potentiation for GABAA1 (GABAA receptor α1β2γ2): −0.053
Relative Potentiation for GABAA2 (GABAA receptor α2β3γ2): 0.09
Ki [1]: 1.46 nM

CCCN1Cc2nc3c(-c4cc(F)ccc4OC)cccc3c(N)c2C1=O [9-amino-5-(5-fluoro-2-methoxyphenyl)-2-propyl-2,3-dihydro-1H-pyrrolo[3,4-b]quinolin-1-one]
Relative Potentiation for GABAA1 (GABAA receptor α1β2γ2): 0.19
Relative Potentiation for GABAA2 (GABAA receptor α2β3γ2): 0.25
Ki [1]: 80.3 nM

COc1ncccc1-c1c(F)ccc2c(N)c3c(nc12)CN(C1CCOC1)C3=O (stereo not drawn)
Relative Potentiation for GABAA1 (GABAA receptor α1β2γ2): 0.097
Relative Potentiation for GABAA2 (GABAA receptor α2β3γ2): 0.32
Ki [1]: 18.8 nM

COc1cccc(F)c1-c1cccc2c(N)c3c(nc12)CN(C1CCC1)C3=O [Example 18, 9-Amino-2-cyclobutyl-5-(2-fluoro-6-methoxyphenyl)-2,3-dihydropyrrolo[3,4-b]quinolin-1-one]
Relative Potentiation for GABAA1 (GABAA receptor α1β2γ2; [2]): −0.07
Relative Potentiation for GABAA2 (GABAA receptor α2β3γ2; [2]): 0.2
Ki [1]: 1.62 nM

CCCN1Cc2nc3c(-c4c(F)cccc4OC)cccc3c(N)c2C1=O [Example 5, 9-Amino-5-(2-fluoro-6-methoxyphenyl)-2-propyl-2,3-dihydropyrrolo[3,4-b]quinolin-1-one]
Relative Potentiation for GABAA1 (GABAA receptor α1β2γ2): 0.11
Relative Potentiation for GABAA2 (GABAA receptor α2β3γ2): 0.3
Ki [1]: 5.03 nM

CCN1Cc2nc3c(-c4ccc(OC)c(OC)c4)c(F)ccc3c(N)c2C1=O [Example 47, 9-Amino-5-(3,4-dimethoxyphenyl)-2-ethyl-6-fluoro-2,3-dihydropyrrolo[3,4-b]quinolin-1-one]
Relative Potentiation for GABAA1 (GABAA receptor α1β2γ2): 0.068
Relative Potentiation for GABAA2 (GABAA receptor α2β3γ2): 0.27
Ki [1]: 4.52 nM

COc1ncccc1-c1c(F)ccc2c(N)c3c(nc12)CN([C@H]1CCOC1)C3=O [Example 170, 9-Amino-6-fluoro-5-(2-methoxypyridin-3-yl)-2-(S)-tetrahydrofuran-3-yl-2,3-dihydropyrrolo[3,4-b]quinolin-1-one]
Relative Potentiation for GABAA1 (GABAA receptor α1β2γ2): −0.14
Relative Potentiation for GABAA2 (GABAA receptor α2β3γ2): 0.19
Ki [1]: 5.68 nM

CCCN1Cc2nc3c(-c4cnc(F)c(C)c4)cccc3c(N)c2C1=O [9-amino-5-(6-fluoro-5-methylpyridin-3-yl)-2-propyl-2,3-dihydro-1H-pyrrolo[3,4-b]quinolin-1-one]
Relative Potentiation for GABAA1 (GABAA receptor α1β2γ2): 0.31
Relative Potentiation for GABAA2 (GABAA receptor α2β3γ2): 0.32
Ki [1]: 30.3 nM

CCCN1Cc2nc3c(-c4cc(Cl)ccc4Cl)cccc3c(N)c2C1=O [9-amino-5-(2,5-dichlorophenyl)-2-propyl-2,3-dihydro-1H-pyrrolo[3,4-b]quinolin-1-one]
Relative Potentiation for GABAA1 (GABAA receptor α1β2γ2): 0.31
Relative Potentiation for GABAA2 (GABAA receptor α2β3γ2): 0.32
Ki [1]: 11.8 nM

CCCN1Cc2nc3c(-c4cccnc4C)cccc3c(N)c2C1=O [9-amino-5-(2-methylpyridin-3-yl)-2-propyl-2,3-dihydro-1H-pyrrolo[3,4-b]quinolin-1-one]
Relative Potentiation for GABAA1 (GABAA receptor α1β2γ2): 0.22
Relative Potentiation for GABAA2 (GABAA receptor α2β3γ2): 0.26
Ki [1]: 11.4 nM

CCN1Cc2nc3c(-c4ccc(OC)c(F)c4)cccc3c(N)c2C1=O [9-amino-2-ethyl-5-(3-fluoro-4-methoxyphenyl)-2,3-dihydro-1H-pyrrolo[3,4-b]quinolin-1-one]
Relative Potentiation for GABAA1 (GABAA receptor α1β2γ2): 0.012
Relative Potentiation for GABAA2 (GABAA receptor α2β3γ2): 0.065
Ki [1]: 42.5 nM

COc1ncc(-c2cccc3c(N)c4c(nc23)CN(C2CC2)C4=O)cc1C [9-amino-2-cyclopropyl-5-(6-methoxy-5-methylpyridin-3-yl)-2,3-dihydro-1H-pyrrolo[3,4-b]quinolin-1-one]
Relative Potentiation for GABAA1 (GABAA receptor α1β2γ2): 0.088
Relative Potentiation for GABAA2 (GABAA receptor α2β3γ2): 0.08
Ki [1]: 55.3 nM

Nc1c2c(nc3c(-c4cccnc4F)c(F)ccc13)CN(C1CCC1)C2=O [9-Amino-2-cyclobutyl-6-fluoro-5-(2-fluoropyridin-3-yl)-2,3-dihydropyrrolo[3,4-b]quinolin-1-one]
Relative Potentiation for GABAA1 (GABAA receptor α1β2γ2): 0.018
Relative Potentiation for GABAA2 (GABAA receptor α2β3γ2): 0.19
Ki [1]: 0.246 nM

COc1ncccc1-c1c(F)ccc2c(N)c3c(nc12)CN(C1CC1)C3=O [Example 38, 9-Amino-2-cyclopropyl-6-fluoro-5-(2-methoxypyridin-3-yl)-2,3-dihydropyrrolo[3,4-b]quinolin-1-one]
Relative Potentiation for GABAA1 (GABAA receptor α1β2γ2): 0.11
Relative Potentiation for GABAA2 (GABAA receptor α2β3γ2): 0.26
Ki [1]: 2.59 nM

CCN1Cc2nc3c(-c4ccc(F)cc4F)c(F)ccc3c(N)c2C1=O [9-amino-5-(2,4-difluorophenyl)-2-ethyl-6-fluoro-2,3-dihydro-1H-pyrrolo[3,4-b]quinolin-1-one]
Relative Potentiation for GABAA1 (GABAA receptor α1β2γ2): −0.038
Relative Potentiation for GABAA2 (GABAA receptor α2β3γ2): 0.064
Ki [1]: 3.85 nM

N#Cc1ccc(F)cc1-c1cccc2c(N)c3c(nc12)CN(C1CCC1)C3=O [2-(9-Amino-2-cyclobutyl-1-oxo-2,3-dihydro-1H-pyrrolo[3,4-b]quinolin-5-yl)-4-fluorobenzonitrile]
Relative Potentiation for GABAA1 (GABAA receptor α1β2γ2): −0.02
Relative Potentiation for GABAA2 (GABAA receptor α2β3γ2): 0.21
Ki [1]: 6.2 nM

Cn1cc(-c2cccc3c(N)c4c(nc23)CN(C2CCC2)C4=O)cn1 [9-Amino-2-cyclobutyl-5-(1-methyl-1H-pyrazol-4-yl)-2,3-dihydropyrrolo[3,4-b]quinolin-1-one]
Relative Potentiation for GABAA1 (GABAA receptor α1β2γ2): 0.01
Relative Potentiation for GABAA2 (GABAA receptor α2β3γ2): 0.18
Ki [1]: 3.76 nM
